Measured values as given in US20240423977A1, “FIVE-MEMBERED RING-FUSED SIX-MEMBERED RING COMPOUND, PREPARATION METHOD THEREFOR, AND PHARMACEUTICAL COMPOSITION AND USE THEREOF” (HANGZHOU POLYMED BIOPHARMACEUTICALS, INC., priority 2022, published 2024).

Key:
kinase IRAK4 = kinase IRAK4 (Homo sapiens (Human), UniProt Q9NWZ3); test: Inhibitory effects of compounds on kinase activity (fluorescence microfluidic mobility detection, competitive with ATP); type: biochemical; conditions: IRAK4 6 nM, ATP 10 μM
Chain of kinase IRAK4 (Q9NWZ3 whole entry): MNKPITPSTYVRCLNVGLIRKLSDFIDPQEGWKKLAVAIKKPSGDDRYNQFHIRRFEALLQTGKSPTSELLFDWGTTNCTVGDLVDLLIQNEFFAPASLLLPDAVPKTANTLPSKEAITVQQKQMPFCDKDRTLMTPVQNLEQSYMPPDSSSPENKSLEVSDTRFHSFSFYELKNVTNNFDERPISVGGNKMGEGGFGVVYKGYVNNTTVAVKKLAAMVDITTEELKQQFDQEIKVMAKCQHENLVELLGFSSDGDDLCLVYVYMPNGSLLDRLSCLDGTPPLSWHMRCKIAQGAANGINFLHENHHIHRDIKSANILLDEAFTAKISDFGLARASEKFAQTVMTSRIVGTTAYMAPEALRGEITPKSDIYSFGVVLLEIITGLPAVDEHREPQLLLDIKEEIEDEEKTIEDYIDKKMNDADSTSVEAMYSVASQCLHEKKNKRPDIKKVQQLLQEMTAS
Procedure: Based on an experimental method of fluorescence microfluidic mobility detection, an IC50 value of competitive binding of kinase IRAK4 to ATP by the compounds was determined. The initial detection concentration of the compounds was 10 μM, diluted 4-fold gradient down to […], and tested in duplicate. Among them, commercial staurosporine was the standard control substance in this experiment.
1) IRAK4 kinase was dissolved in kinase buffer (50 mM HEPES pH 7.5, 10 mM MgCl2, 2 mM DTT and 0.01% Brij-35) to a final concentration of 6 nM.
2) The substrate peptide FAM-P8 and ATP were dissolved in the above kinase buffer. The final concentrations of the IRAK4 substrate peptide FAM-P8 and ATP were 3 μM and 10 μM respectively.
3) Dilution of the compounds: the compound was first diluted to 50 μM, and then diluted down with a 4-fold gradient of DMSO. The solution without the compound and kinase is used as a blank control, corresponding to the “minimum value” shown below; and the solution without the compound but with kinase, adenosine 5′-triphosphate disodium salt hydrate, DMSO and buffer is used as a positive control, corresponding to the “maximum value” shown below. 4) Kinase reaction and termination: 10 μL of kinase buffer was added to a 384-well plate containing 5 μL of the compound to be tested, and incubated at room temperature for 10 minutes. Another 10 μL of buffer containing the substrate peptide and adenosine 5′-triphosphate disodium salt hydrate was added to the 384-well plate. After incubation at 28° C. for one hour, 25 μL stop solution (100 mM HEPES pH 7.5, 50 mM EDTA, 0.2% Coating Reagent #3 and 0.015% Brij-35) was added to each well to terminate the reaction.
5) Data reading: the CaliperEZ Reader II instrument was used to read the conversion rate data. Conditions: downstream voltage −500V, upstream voltage −2250V, base pressure −0.5 PSI, and screening pressure −1.2 PSI.
6) Data calculation: the conversion rate data was copied from CaliperEZ Reader II and converted into inhibition rate data. The calculation formula is as follows:
[formula] • IC50 values were fitted using XLFit excel add-in version 5.4.0.8,
Y=Bottom+(Top−Bottom)/(1+(IC50/X)^HillSlope) Fitting formula: […]

[1] = molecular target: IRAK4 protein in THP-1 cells (Homo sapiens (Human), UniProt Q9NWZ3); test: PROTAC-induced IRAK4 protein degradation in THP-1 cells (Western Blot); type: cell-based; conditions: for IRAK4 degradation rate 24 hours after administration of the compounds with a concentration of 1 μM: Western blotting; for DC50: concentration that degraded 50% of IRAK4, Western blotting, 24 hours after administration
Chain of IRAK4 protein in THP-1 cells (Q9NWZ3 whole entry): as above
Procedure: 2.1 Based on the experimental method of Western Blot, specific antibodies were used to stain the THP-1 cell samples treated by gel electrophoresis, and the degrading activity of the compounds on the IRAK4 protein in THP-1 cells was determined by analyzing the position and depth of staining. The concentrations of compound for the detection included 0 μM, 0.3 μM, 1 μM and 3 μM, and the cells were treated by the compound for 8 hours, 16 hours, 24 hours, and 48 hours. Glyceraldehyde-3-phosphate dehydrogenase (GAPDH) is an internal reference protein in this experiment.
Electrophoresis buffer: 50 mL MOPS SDS Running Buffer (20×) and 50 mL 20×TBS Tween-20 buffer were diluted with deionized water to 1 L as the electrophoresis buffer;
5% skim milk (w/v): 2.5 g skim milk was diluted with 50 mL 1×TBS Tween-20 buffer to prepare 5% skim milk;
5% BSA (w/v): 2.5 g BSA was diluted with 50 mL 1×TBS Tween-20 buffer to prepare 5% BSA;
Anti-IRAK4 antibody was diluted with 5% BSA at 1:1000 into a primary antibody working solution;
Goat Anti-Rabbit IgG H&L (HRP) was diluted with 5% BSA at 1:2000 into a second antibody working solution; and
Goat Anti-Mouse IgG H&L (HRP) was diluted with 5% BSA at 1:2000 into a second antibody working solution.
THP-1 cells were plated in a 6-well plate at a density of 1.5×10^6 cells per ml and incubated for 2 hours in a cell culture incubator under 37° C. and 5% CO2. The compound was diluted with DMSO to 0.6 mM, 0.2 mM and 0.06 mM respectively. 10 μL of compound solution was added to the corresponding wells, and continued to incubate in the incubator for 16 hours, 24 hours and 48 hours respectively. The compound-treated THP-1 cells in the well were collected, added with 120 μL of RIPA lysate containing protease inhibitor, Phosphatase Inhibitor Cocktail 2 and Phosphatase Inhibitor Cocktail 3, lysed on wet ice for 30 minutes, and then the cells lysate was centrifuged at a high speed and a low temperature for 5 minutes to collect the supernatant. The protein concentration of the cell sample was determined according to the instructions in the Pierce™ BCA Protein Assay Kit.
The concentration of the sample was adjusted to be consistent using lysis buffer and NuPAGE® LDS sample buffer containing 1M DTT. The samples were heated at 95° C. for 5 minutes and centrifuged at a low temperature and at a high speed. 20 μL of the prepared protein sample and 4 μL of PageRuler Prestained Protein Ladder were added into the gel well for running at 80V voltage for 0.5 hours, then the voltage was adjusted to 120V for further running for 1.5 hours. The gel was removed and the proteins in the gel were transferred to the IBlotTM 2 transfer membrane set at 20V. After successful transfer, bands at 65 kDa-40 kDa and 40 kDa-30 kDa were cut respectively. The membranes were blocked with 5% skim milk for 1 hour at room temperature. The membranes were washed three times with 1× concentration of TBST, then incubated with IRAK4 antibody working solution overnight at 4° C. The IRAK4 antibody working solution was discarded, and the membranes were washed three times with 1×concentration of TBST, and incubated with Goat Anti-Rabbit IgG H&L (HRP) working solution and Goat Anti-Mouse IgG H&L (HRP) working solution at room temperature. After 1 hour of incubation, the antibody working solution was discarded and the membranes were washed three times with 1× concentration of TBST. According to the instructions of the kit SuperSignal™ West Femto Maximum Sensitivity Substrate, the reagents in the kit were mixed in equal volume proportions to prepare a luminescent liquid mixture. The membranes were incubated for 1 minute, then removed for exposure.
The results of Western blotting 24 hours after administration of the compounds with a concentration of 1 μM were shown in Table 3: […]

Compound | IC50 (kinase IRAK4; Table 1, class symbols) | IC50 (kinase IRAK4; Table 2, substrate FAM-P8 3 μM) | IRAK4 degradation rate 24 hours after administration of the compounds with a concentration of 1 μM [1] | DC50 [1]
COc1cc2nn(C3CCN(C(=O)CN4CCN(c5ccc6c(c5)C(=O)N(C5CCC(=O)NC5=O)C6=O)CC4)CC3)cc2cc1NC(=O)c1cccc(C(F)(F)F)n1 (centres unmarked) [II-4] | < 100 nM | 20 nM | 50~75% | 12.4 nM
COc1cc2nn(C3CC4(CCN(C(=O)C5CCN(c6ccc7c(c6)CN(C6CCC(=O)NC6=O)C7=O)CC5)CC4)C3)cc2cc1NC(=O)c1cccc(C(F)(F)F)n1 (centres unmarked) [Compound I-7] |  | 8.1 nM |  | 3.6 nM
COc1cc2nn(C3CC4(CCN(C(=O)C5CCN(c6ccc7c(c6)C(=O)N(C6CCC(=O)NC6=O)C7=O)CC5)CC4)C3)cc2cc1NC(=O)c1coc(N2CCOCC2)n1 (centres unmarked) [Compound I-54] |  | 11.6 nM |  | 6.2 nM
COc1cc2nn(C3CC4(CCN(C(=O)[C@H]5CC[C@H](Nc6ccc7c(c6)C(=O)N(C6CCC(=O)NC6=O)C7=O)CC5)CC4)C3)cc2cc1NC(=O)c1cccc(C(F)(F)F)n1 (some centres unmarked) [Compound I-4] | < 100 nM | 36.6 nM |  | 2.06 nM
COc1cc2nn(C3CC4(CCN(C(=O)C5CCN(c6ccc7c(c6)C(=O)N(C6CCC(=O)NC6=O)C7=O)CC5)CC4)C3)cc2cc1NC(=O)c1cccc(N2CC3CC2CO3)n1 (centres unmarked) [Compound I-52] |  | 13.3 nM |  | 3.9 nM
COc1cc2nn(C3CC4(CCN(C(=O)C5(F)CCN(c6ccc7c(c6)C(=O)N(C6CCC(=O)NC6=O)C7=O)CC5)CC4)C3)cc2cc1NC(=O)c1cccc(N2CCOCC2)n1 (centres unmarked) [Compound I-50] |  | 70.7 nM |  | 21.6 nM
COc1cc2nn(C3CC4(CCN(C(=O)C5CCN(c6ccc7c(c6)C(=O)N(C6CCC(=O)NC6=O)C7=O)CC5)CC4)C3)cc2cc1NC(=O)c1coc(-c2ccnc(C)c2)n1 (centres unmarked) [Compound I-36] |  | 12.4 nM |  | 1.16 nM
COc1cc2nn(C3CCC4(CC3)CCN(C(=O)C3CCN(c5ccc6c(c5)C(=O)N(C5CCC(=O)NC5=O)C6=O)CC3)CC4)cc2cc1NC(=O)c1cccc(C(F)(F)F)n1 (centres unmarked) [Compound I-27] |  | 42 nM |  | 6.9 nM
COc1cc2nn(C3CC4(CCN(C(=O)C5CCN(c6ccc7c(c6)C(=O)N([C@H]6CCC(=O)NC6=O)C7=O)CC5)CC4)C3)cc2cc1NC(=O)c1cccc(C(F)(F)F)n1 [Compound I-65] |  | 26.3 nM |  | 3.71 nM
COc1cc2nn(C3CC4(CCN(C(=O)C5CCN(c6ccc7c(c6)C(=O)N([C@@H]6CCC(=O)NC6=O)C7=O)CC5)CC4)C3)cc2cc1NC(=O)c1cccc(C(F)(F)F)n1 [Compound I-66] |  | 25.3 nM |  | 3.14 nM
COc1cc2nn(C3CCN(CC(=O)N4CCN(c5cccc6c5C(=O)N(C5CCC(=O)NC5=O)C6=O)CC4)CC3)cc2cc1NC(=O)c1cccc(C(F)(F)F)n1 (centres unmarked) [II-20] |  | 5.5 nM |  | 14.1 nM
COc1cc2nn(C3CC4(CCN(C(=O)C5CCN(c6ccc7c(c6)C(=O)N(c6ccc(=O)[nH]n6)C7=O)CC5)CC4)C3)cc2cc1NC(=O)c1cccc(C(F)(F)F)n1 [Compound I-43] |  | 20.7 nM |  | > 1000 nM
COc1cc2nn(C3CC4(CCN(C(=O)[C@H]5CC[C@H](CNc6ccc7c(c6)C(=O)N(C6CCC(=O)NC6=O)C7=O)CC5)CC4)C3)cc2cc1NC(=O)c1cccc(C(F)(F)F)n1 (some centres unmarked) [Compound I-3] | < 100 nM | 16 nM | 75~100% | 3.64 nM
COc1cc2nn(C3CC4(CCN(C(=O)C5CCC6(CC5)CN(c5ccc7c(c5)C(=O)N(C5CCC(=O)NC5=O)C7=O)C6)CC4)C3)cc2cc1NC(=O)c1cccc(C(F)(F)F)n1 (centres unmarked) [Compound I-26] |  | 30 nM |  | 44.6 nM
COc1cc2nn(C3CC4(C3)CN(C(=O)C3CCN(c5ccc6c(c5)C(=O)N(C5CCC(=O)NC5=O)C6=O)CC3)C4)cc2cc1NC(=O)c1cccc(C(F)(F)F)n1 (centres unmarked) [Compound I-14] |  | 16.6 nM |  | 12.6 nM
COc1cc2nn(C3CC4(CCN(C(=O)[C@H]5CC[C@H](Nc6ccc7c(c6)C(=O)N([C@@H]6CCC(=O)NC6=O)C7=O)CC5)CC4)C3)cc2cc1NC(=O)c1cccc(C(F)(F)F)n1 [Compound I-60] |  | 40.5 nM |  | 2.75 nM
CC(C)(O)c1cc2nn(C3CC4(CCN(C(=O)C5CCN(c6ccc7c(c6)C(=O)N(C6CCC(=O)NC6=O)C7=O)CC5)CC4)C3)cc2cc1NC(=O)c1cccc(C(F)(F)F)n1 (centres unmarked) [Compound I-5] |  | 11.3 nM |  | 3.6 nM
COc1cc2nn(C3CC4(CCN(C(=O)C5CCN(c6ccc7c(c6)C(=O)N(C6CCC(=O)NC6=O)C7=O)CC5)CC4)C3)cc2cc1NC(=O)c1ccn(C(F)F)n1 (centres unmarked) [Compound I-47] |  | 9.17 nM |  | 5.53 nM
